Laboratory results taken from patent publication US10253039B2, “Inhibitors of bacterial DNA gyrase with efficacy against gram-negative bacteria” (priority 2014, dated 2019).
Values after ≈ are worked out from the molar mass of the structure shown. Read-outs that look alike come from different tables or passages of the source.

Tests used:
Type in all cases: cell-based
[1] = tested on: E. coli BW25113; assay: MIC, microdilution in 96-well plates; details: Escherichia coli, read-out: MIC
Summary of the method: (§1)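 Broth microdilution per CLSI, 2-fold serial dilutions in Luria-Bertani medium with a 1:10000 inoculum from a growing subculture. Plates shaken at 37 °C for 16-18 h; MIC taken as lowest concentration showing no visible turbidity.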

[2] = tested on: Edwardsiella tarda; assay: MIC, microdilution in 96-well plates
Summary of the method: as §1

[3] = tested on: E. coli MG1655; assay: MIC, 20-strain panel; details: Escherichia coli, read-out: MIC
Summary of the method: as §1

[4] = tested on: E. coli JW5503 (deltolC); assay: MIC, 20-strain panel; details: Escherichia coli
Summary of the method: as §1

[5] = tested on: Klebsiella pneumoniae subsp. pneumoniae; assay: MIC, 20-strain panel
Summary of the method: as §1

[6] = tested on: Staphylococcus epidermidis; assay: MIC, 20-strain panel
Summary of the method: as §1

[7] = tested on: Staphylococcus aureus subsp. aureus; assay: MIC, 20-strain panel; details: read-out: MIC
Summary of the method: as §1

[8] = tested on: Streptococcus pyogenes; assay: MIC, 20-strain panel
Summary of the method: as §1

[9] = tested on: Shigella flexneri; assay: MIC, 20-strain panel
Summary of the method: as §1

[10] = tested on: Staphylococcus saprophyticus subsp. saprophyticus; assay: MIC, 20-strain panel
Summary of the method: as §1

[11] = tested on: Salmonella enterica subsp. enterica typhimurium; assay: MIC, 20-strain panel
Summary of the method: as §1

[12] = tested on: Streptococcus agalactiae; assay: MIC, 20-strain panel
Summary of the method: as §1

[13] = E: Klebsiella pneumoniae subsp. pneumoniae
[14] = H: Staphylococcus aureus subsp. aureus
[15] = F: Salmonella enterica subsp. enterica Typhimurium
[16] = Klebsiella pneumoniae subsp. pneumoniae
[17] = Staphylococcus aureus subsp. aureus
[18] = Salmonella enterica subsp. enterica Typhimurium

SMILES | MIC ([1]; BW25113, B: E. coli BW25113) [µg/mL] | MIC ([2]; D: Edwardsiella tarda) [µg/mL] | MIC ([3]; MG1655, A: E. coli MG1655) [µg/mL] | MIC ([4]; C: E. coli JW5503 (deltolC)) [µg/mL] | MIC [5, 13] [µg/mL] | MIC [6] [µg/mL] | MIC [7, 14] [µg/mL] | MIC [8] [µg/mL] | MIC ([9]; G: Shigella flexneri) [µg/mL] | MIC [10] [µg/mL] | MIC [11, 15] [µg/mL] | MIC [12] [µg/mL] | MIC ([1]; BW25113, E. coli BW25113) [µg/mL] | MIC [2] [µg/mL] | MIC ([3]; MG1655, E. coli MG1655) [µg/mL] | MIC ([4]; E. coli JW5503 (deltolC)) [µg/mL] | MIC [5, 16] [µg/mL] | MIC [7, 17] [µg/mL] | MIC [9] [µg/mL] | MIC [11, 18] [µg/mL]
O=S(=O)(N[C@@H]1CCN(Cc2ccc(-c3ccccc3)cc2)C1)c1cnccc1Cl [Compound 122] | > 8 | > 8 | > 8 | 4 (≈ 9.35 µM) | > 8 | ~8 (≈ 18.7 µM) | > 8 | > 8 | > 8 | > 8 | > 8 | > 8 |  |  |  |  |  |  |  | 
N#Cc1cccc(S(=O)(=O)N[C@@H]2CCN(Cc3ccc(OC(F)(F)F)cc3)C2)c1 [Compound 17] | > 8 | > 8 | > 8 | 8 (≈ 18.8 µM) | > 8 | > 8 | > 8 | > 8 | > 8 | > 8 | > 8 | > 8 |  |  |  |  |  |  |  | 
N#Cc1cccc(S(=O)(=O)N[C@@H]2CCN(Cc3ccc(-c4cccs4)cc3)C2)c1 [Compound 25] | ~8 (≈ 18.9 µM) | > 8 | ~8 (≈ 18.9 µM) | 0.25 (≈ 0.59 µM) | > 8 | > 8 | > 8 | > 8 | > 8 | > 8 | 4 (≈ 9.44 µM) | > 8 |  |  |  |  |  |  |  | 
Cc1ccc(S(=O)(=O)N[C@@H]2CCN(Cc3ccc(OC(C)C)cc3)C2)cn1 [Compound 139] |  |  |  |  |  | > 8 |  | > 8 |  | > 8 |  | > 8 | > 8 | > 8 | > 8 | > 8 | > 8 | > 8 | > 8 | > 8
O=S(=O)(N[C@@H]1CCN(Cc2ccc(-c3ccccc3)cc2)C1)c1cnc2ccsc2c1 [Compound 111] | > 8 | > 8 | > 8 | > 8 | > 8 | > 8 | > 8 | > 8 | > 8 | > 8 | > 8 | > 8 |  |  |  |  |  |  |  | 
O=S(=O)(N[C@@H]1CCN(Cc2ccc(-c3ccccc3)cc2)C1)c1cc(Cl)cc(C(F)(F)F)c1 [Compound 110] | > 8 | > 8 | > 8 | > 8 | > 8 | 4 (≈ 8.08 µM) | > 8 | 8 (≈ 16.2 µM) | > 8 | > 8 | > 8 | > 8 |  |  |  |  |  |  |  | 
O=S(=O)(N[C@@H]1CCN(Cc2ccc(-c3cncnc3)cc2)C1)c1cccc(C(F)(F)F)c1 [Compound 58] | > 8 | > 8 | > 8 | 8 (≈ 17.3 µM) | > 8 | > 8 | > 8 | > 8 | > 8 | > 8 | > 8 | > 8 |  |  |  |  |  |  |  | 
O=S(=O)(N[C@@H]1CCN(Cc2ccc(OC3CC3)cc2)C1)c1cc(Cl)cc(C(F)(F)F)c1 [Compound 94] | > 8 | > 8 | > 8 | 8 (≈ 16.8 µM) | > 8 | > 8 | > 8 | > 8 | > 8 | > 8 | > 8 | > 8 |  |  |  |  |  |  |  | 
O=S(=O)(N[C@@H]1CCN(Cc2ccc(OC3CC3)cc2)C1)c1ncc[nH]1 [Compound 130] |  |  |  |  |  | > 8 |  | > 8 |  | > 8 |  | > 8 | > 8 | > 8 | > 8 | ~8 (≈ 22.1 µM) | > 8 | > 8 | > 8 | ~8 (≈ 22.1 µM)
N#Cc1cccc(S(=O)(=O)N[C@@H]2CCN(Cc3ccc4c(c3)OCCO4)C2)c1 [Compound 9] | > 8 | > 8 | > 8 | > 8 | > 8 | > 8 | > 8 | > 8 | > 8 | > 8 | > 8 | > 8 |  |  |  |  |  |  |  | 
O=S(=O)(N[C@@H]1CCN(Cc2ccc(OC3CC3)cc2)C1)c1cnc2ccsc2c1 [Compound 158] |  |  |  |  |  | > 8 |  | > 8 |  | > 8 |  | > 8 | > 8 | > 8 | > 8 | > 8 | > 8 | > 8 | > 8 | > 8
O=S(=O)(N[C@@H]1CCN(Cc2ccc(-c3cncnc3)cc2)C1)c1cccc(OC(F)(F)F)c1 [Compound 63] | > 8 | > 8 | > 8 | 4 (≈ 8.36 µM) | > 8 | > 8 | > 8 | > 8 | > 8 | > 8 | > 8 | > 8 |  |  |  |  |  |  |  | 
CC(=O)c1cc(S(=O)(=O)N[C@@H]2CCN(Cc3ccc(-c4ccccc4)cc3)C2)ccc1C [Compound 68] | > 8 | > 8 | > 8 | 8 (≈ 17.8 µM) | > 8 | 8 (≈ 17.8 µM) | > 8 | > 8 | > 8 | > 8 | > 8 | > 8 |  |  |  |  |  |  |  | 
O=S(=O)(N[C@@H]1CCN(Cc2ccc(-c3ccccn3)cc2)C1)c1cccc(C(F)(F)F)c1 [Compound 43] | > 8 | > 8 | > 8 | 0.5 (≈ 1.08 µM) | > 8 | > 8 | > 8 | > 8 | > 8 | > 8 | > 8 | > 8 |  |  |  |  |  |  |  | 
COc1cc(CN2CC[C@@H](NS(=O)(=O)c3cccc(C(F)(F)F)c3)C2)ccc1OC(C)C [Compound 42] | > 8 | > 8 | > 8 | > 8 | > 8 | > 8 | > 8 | > 8 | > 8 | > 8 | > 8 | > 8 |  |  |  |  |  |  |  | 
O=S(=O)(N[C@@H]1CCN(Cc2ccc(-c3ccccn3)cc2)C1)c1cccc(OC(F)(F)F)c1 [Compound 48] | > 8 | > 8 | > 8 | 1 (≈ 2.09 µM) | > 8 | > 8 | > 8 | > 8 | > 8 | > 8 | > 8 | > 8 |  |  |  |  |  |  |  | 
